Laboratory results taken from ChEMBL document CHEMBL1201862, “PubChem BioAssay data set” (2004).
“And” between values parts separate entries of the source, which are not always exact repeats. Equal values may be shown once.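 A five-concentration, 48-hour dose response in 96-well plates underlies each endpoint, interpolated linearly between surrounding concentrations. GI50 marks 50% less growth.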 The source made the active and inactive calls. No stated cut-off is given here; in the data, active = GI50 up to about 1.1 µM and inactive = higher. *1 amine or outer side, *2 acyl side, *3 side chain or, on linkers, in order; H or OH if unused. Where a SMILES comes first, the peptide text is derived from it. Bridges are numbered along the chain shown (N, C = ends). Roman numbers before positions name the chains, in order. [ ]: non-standard residue; d: D form. Actinocin(1to9) = Cc1c2oc3c(C)ccc(C(=O)[*:2])c3nc-2c(C(=O)[*:1])c(N)c1=O; NMeY = CN[CH](Cc1ccc(O)cc1)C(=O)O; Sar = CNCC(=O)O

Key:
Assay in all cases: NCI tumour cell line growth inhibition, 48 h
786-0 = test system: 786-0
A549 = test system: A549
ACHN = test system: ACHN
BT-549 = test system: BT-549
CAKI-1 = test system: CAKI-1
CCRF-CEM = test system: CCRF-CEM
COLO 205 = test system: COLO 205
DU-145 = test system: DU-145
EKVX = test system: EKVX
HCC 2998 = test system: HCC 2998
HCT-15 = test system: HCT-15
HL-60 = test system: HL-60
HOP-62 = test system: HOP-62
HOP-92 = test system: HOP-92
HT-29 = test system: HT-29
IGROV-1 = test system: IGROV-1
K562 = test system: K562
KM12 = test system: KM12
LOX IMVI = test system: LOX IMVI
M14 = test system: M14
MCF7 = test system: MCF7
MDA-MB-231 = test system: MDA-MB-231
MDA-MB-435 = test system: MDA-MB-435
MDA-N = test system: MDA-N
MOLT-4 = test system: MOLT-4
Malme-3M = test system: Malme-3M
NCI-H226 = test system: NCI-H226
NCI-H23 = test system: NCI-H23
NCI-H460 = test system: NCI-H460
NCI-H522 = test system: NCI-H522
NCI/ADR-RES = test system: NCI/ADR-RES
OVCAR-4 = test system: OVCAR-4
OVCAR-8 = test system: OVCAR-8
PC-3 = test system: PC-3
RPMI-8226 = test system: RPMI-8226
RXF 393 = test system: RXF 393
SF-268 = test system: SF-268
SF-295 = test system: SF-295
SK-MEL-28 = test system: SK-MEL-28
SK-MEL-5 = test system: SK-MEL-5
SK-OV-3 = test system: SK-OV-3
SN12C = test system: SN12C
SNB-19 = test system: SNB-19
SNB-75 = test system: SNB-75
SR = test system: SR
SW-620 = test system: SW-620
T47D = test system: T47D
TK-10 = test system: TK-10
UACC-257 = test system: UACC-257
UACC-62 = test system: UACC-62
UO-31 = test system: UO-31
A498 = test system: A498
OVCAR-3 = test system: OVCAR-3
SF-539 = test system: SF-539

CC(C)(C)C1=NC(=S)SC2=NC(=O)C3(NN21)c1ccccc1-c1ccccc13
GI50 (786-0): 9.57 µM (inactive) | GI50 (A549): 7.26 µM (inactive) | GI50 (ACHN): 6.14 µM (inactive) | GI50 (BT-549): 6.35 µM (inactive) | GI50 (CAKI-1): > 10 µM (inactive) | GI50 (CCRF-CEM): 8.71 µM (inactive) | GI50 (COLO 205): > 10 µM (inactive) | GI50 (DU-145): > 10 µM (inactive) | GI50 (EKVX): 2.67 µM (inactive) | GI50 (HCC 2998): > 10 µM (inactive) | GI50 (HCT-15): 9.27 µM | GI50 (HL-60): 6.79 µM (inactive) | GI50 (HOP-62): > 10 µM (inactive) | GI50 (HOP-92): > 10 µM (inactive) | GI50 (HT-29): > 10 µM (inactive) | GI50 (IGROV-1): > 10 µM (inactive) | GI50 (K562): 5.05 µM (inactive) | GI50 (KM12): > 10 µM (inactive) | GI50 (LOX IMVI): > 10 µM (inactive) | GI50 (M14): > 10 µM (inactive) | GI50 (MCF7): 4.43 µM (inactive) | GI50 (MDA-MB-231): 9.46 µM (inactive) | GI50 (MDA-MB-435): > 10 µM (inactive) | GI50 (MDA-N): 8.41 µM (inactive) | GI50 (MOLT-4): 3.45 µM (inactive) | GI50 (Malme-3M): > 10 µM (inactive) | GI50 (NCI-H226): 6.07 µM (inactive) | GI50 (NCI-H23): > 10 µM (inactive) | GI50 (NCI-H460): 4.61 µM (inactive) | GI50 (NCI-H522): 9.25 µM (inactive) | GI50 (NCI/ADR-RES): 5.41 µM (inactive) | GI50 (OVCAR-4): 7.98 µM (inactive) | GI50 (OVCAR-8): > 10 µM (inactive) | GI50 (PC-3): 7.21 µM (inactive) | GI50 (RPMI-8226): 5.08 µM (inactive) | GI50 (RXF 393): > 10 µM (inactive) | GI50 (SF-268): > 10 µM (inactive) | GI50 (SF-295): > 10 µM (inactive) | GI50 (SK-MEL-28): > 10 µM (inactive) | GI50 (SK-MEL-5): 3.44 µM (inactive) | GI50 (SK-OV-3): > 10 µM (inactive) | GI50 (SN12C): > 10 µM (inactive) | GI50 (SNB-19): > 10 µM (inactive) | GI50 (SNB-75): > 10 µM (inactive) | GI50 (SR): 4.59 µM (inactive) | GI50 (SW-620): > 10 µM (inactive) | GI50 (T47D): 2.04 µM (inactive) | GI50 (TK-10): > 10 µM (inactive) | GI50 (UACC-257): > 10 µM (inactive) | GI50 (UACC-62): > 10 µM (inactive) | GI50 (UO-31): 6.58 µM (inactive)

COc1ccc(CC2C(=O)OC(C)C(NC(=O)c3c4nc5c(C(=O)NC6C(=O)NC(C(C)C)C(=O)N7CCCC7C(=O)N(C)CC(=O)N(C)C(Cc7ccc(OC)cc7)C(=O)OC6C)ccc(C)c5oc-4c(C)c(=O)c3N)C(=O)NC(C(C)C)C(=O)N3CCCC3C(=O)N(C)CC(=O)N2C)cc1 (stereo not given) (I: TVP[Sar][NMeY](Me) / II: TVP[Sar][NMeY](Me); ester I:1-I:C, II:1-II:C; linker I:N-II:N via Actinocin(1to9); configuration not given here)
GI50 (A498): < 10 nM (active) and 14.9 nM (active) | GI50 (A549): 0.00527 µM (active) | GI50 (ACHN): 0.0102 µM (active) | GI50 (BT-549): 0.0208 µM (active) | GI50 (DU-145): 0.0121 µM (active) | GI50 (HCC 2998): < 10 nM (active) and 8.04 nM (active) | GI50 (HOP-62): 0.00953 µM (active) | GI50 (KM12): 0.00516 µM (active) | GI50 (MDA-MB-435): 0.00923 µM (active) | GI50 (MDA-N): 0.00811 µM (active) | GI50 (Malme-3M): < 10 nM (active) and 10.6 nM (active) | GI50 (NCI-H226): < 10 nM (active) and 14.9 nM (active) | GI50 (NCI-H23): 0.0104 µM (active) | GI50 (OVCAR-3): < 10 nM (active) and 9.44 nM (active) | GI50 (OVCAR-4): < 0.01 µM (active) | GI50 (OVCAR-8): 0.00859 µM (active) | GI50 (PC-3): < 10 nM (active) and 10 nM (active) | GI50 (RPMI-8226): 0.0121 µM (active) | GI50 (SF-295): 0.0199 µM (active) | GI50 (SF-539): < 10 nM (active) and 7.08 nM (active) | GI50 (SK-MEL-28): 0.00964 µM (active) | GI50 (SK-MEL-5): 0.0119 µM (active) | GI50 (SN12C): 0.0053 µM (active) | GI50 (SNB-19): 0.00637 µM (active) | GI50 (SNB-75): 0.00764 µM (active) | GI50 (SW-620): < 10 nM (active) and 13.6 nM (active) | GI50 (T47D): 0.0094 µM (active) | GI50 (UACC-257): 0.0155 µM (active) | GI50 (UACC-62): 0.0107 µM (active)
